# Results taken from patent US20220389061A1, “IMMUNOMODULATORS” (priority 2019, published 2022).
# Starred links: 1 amine or outer side, 2 acyl side, 3 side chain; linkers in the order of their positions; H or OH if unused. Positions of bridges follow the written chain, without caps; N, C: chain ends. Non-standard residues stand in square brackets, D forms with d. Residues, ends and D or L forms follow the SMILES beside them. Groups on a side chain read outwards from the residue. *: point of attachment. Trp(1-CH2CO2Me) = COC(=O)Cn1cc(C[C@H](N)C(=O)O)c2ccccc21; Trp(1-CH2COOH) = N[C@@H](Cc1cn(CC(=O)O)c2ccccc12)C(=O)O; NH(benzothiophen-5-yl) = c1cc2cc(N*)ccc2s1; X79 = CCn1c2ccccc2c2cc(NC(=S)*)ccc21; X38 = N#Cc1c[nH]c2c(NC(=S)*)cccc12; Hyp = O=C(O)[C@@H]1C[C@@H](O)CN1; X35 = Cc1n[nH]c2c(NC(=S)*)cccc12; X72 = COc1ccc2nccc(C(=O)*)c2c1; X69 = c1ccc(-c2ccc(N*)cc2)cc1; NMeNle = CCCC[C@H](NC)C(=O)O; X4 = S=C(Nc1ccc2c(c1)OCCO2)*; X52 = c1ccc2c(N*)c[nH]c2c1; NMeA = CN[C@@H](C)C(=O)O; X71 = c1cc2c(cc1N*)OCCO2; βNA = c1ccc2cc(N*)ccc2c1; Dab = NCC[C@H](N)C(=O)O; Dap = NC[C@H](N)C(=O)O; X37 = Fc1cc(F)cc(N*)c1; CO = O=C([*:1])[*:2]
# Molecular target: T1, PD-1/PD-L1 (Homo sapiens, UniProt Q9NZQ7)
# T1 construct: TVMV protease site linker (C); made in house; host or cells: HEK293T cells
# Test: PD-1/PD-L1 Homogenous Time-Resolved Fluorescence (HTRF) binding assay
# Conditions: not given
# From the text: The ability of the compounds of formula (I) to bind to PD-L1 was investigated using a PD-1/PD-L1 Homogenous Time-Resolved Fluorescence (HTRF) binding assay.
# The interaction of PD-1 and PD-L1 can be assessed using soluble, purified preparations of the extracellular domains of the two proteins. The PD-1 and PD-L1 protein extracellular domains were expressed as fusion proteins with detection tags, for PD-1, the tag was the Fc portion of Immunoglobulin (PD-1-Ig) and for PD-L1 it was the 6 histidine motif (PD-L1-His). All binding studies were performed in an HTRF assay buffer consisting of dPBS supplemented with 0.1% […] bovine serum albumin and 0.05% (v/v) Tween-20. For the h/PD-L1-His binding assay, inhibitors were pre-incubated with PD-L1-His (10 nM final) for 15 m in 4 μl of assay buffer, followed by addition of PD-1-Ig (20 nM final) in 1 μl of assay buffer and further incubation for 15 m. HTRF detection was achieved using europium crypate-labeled anti-Ig (1 nM final) and allophycocyanin (APC) labeled anti-His (20 nM final). Antibodies were diluted in HTRF detection buffer and 5 μl was dispensed on top of the binding reaction. […] Additional binding assays were established between the human proteins PD-1-Ig/PD-L2-His (20 & 5 nM, respectively) and CD80-His/PD-L1-Ig (100 & 10 nM, respectively). […]
# T1 sequence (Q9NZQ7 18-239): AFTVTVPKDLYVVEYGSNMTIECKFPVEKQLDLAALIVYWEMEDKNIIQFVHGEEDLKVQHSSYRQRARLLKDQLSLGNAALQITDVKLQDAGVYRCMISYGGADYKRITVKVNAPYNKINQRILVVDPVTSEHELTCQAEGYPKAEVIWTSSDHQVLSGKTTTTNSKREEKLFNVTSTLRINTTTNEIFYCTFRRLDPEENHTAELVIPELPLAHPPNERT
row,SMILES,IC50
1,CCCC[C@H]1C(=O)N(C)[C@@H](CCCC)C(=O)N[C@@H](CC(C)C)C(=O)N[C@H](C(=O)NCC(N)=O)CSCC(=O)N[C@@H](Cc2ccc(O)cc2)C(=O)N(C)[C@@H](C)C(=O)N[C@@H](CC(N)=O)C(=O)N2CCC[C@H]2C(=O)N[C@@H](CNC(=O)Nc2ccc3ccccc3c2)C(=O)N[C@@H](CC(C)C)C(=O)N2C[C@H](O)C[C@H]2C(=O)N[C@@H](Cc2c[nH]c3ccccc23)C(=O)N[C@@H](CCNC(=O)Nc2ccc3ccccc3c2)C(=O)N[C@@H](Cc2cn(CC(=O)O)c3ccccc23)C(=O)N1C [Example 3001] ({CH2CO}-Y[NMeA]NP[Dap]([CO-βNA])L[Hyp]W[Dab]([CO-βNA])[Trp(1-CH2COOH)][NMeNle][NMeNle]LCG-NH2; thioether N-14),7.3 nM
2,CCCC[C@H]1C(=O)N(C)[C@@H](CCCC)C(=O)N[C@@H](CC(C)C)C(=O)N[C@H](C(=O)NCC(N)=O)CSCC(=O)N[C@@H](Cc2ccc(O)cc2)C(=O)N(C)[C@@H](C)C(=O)N[C@@H](CC(N)=O)C(=O)N2CCC[C@H]2C(=O)N[C@@H](CNC(=O)Nc2ccc(-c3ccccc3)cc2)C(=O)N[C@@H](CC(C)C)C(=O)N2C[C@H](O)C[C@H]2C(=O)N[C@@H](Cc2c[nH]c3ccccc23)C(=O)N[C@@H](CCNC(=O)Nc2ccc(-c3ccccc3)cc2)C(=O)N[C@@H](Cc2cn(CC(=O)O)c3ccccc23)C(=O)N1C [Example 1011] ({CH2CO}-Y[NMeA]NP[Dap]([CO-X69])L[Hyp]W[Dab]([CO-X69])[Trp(1-CH2COOH)][NMeNle][NMeNle]LCG-NH2; thioether N-14),17 nM

# Same assay, conditions: PD-L1-His 10 nM pre-incubated with inhibitor, PD-1-Ig 20 nM; read-out: HTRF IC50
row,SMILES,IC50
1,CCCC[C@H]1C(=O)N(C)[C@@H](CCCC)C(=O)N[C@@H](CC(C)C)C(=O)N[C@H](C(=O)NCC(N)=O)CSCC(=O)N[C@@H](Cc2ccc(O)cc2)C(=O)N(C)[C@@H](C)C(=O)N[C@@H](CC(N)=O)C(=O)N2CCC[C@H]2C(=O)N[C@@H](CNC(=S)Nc2cccc3c(C)n[nH]c23)C(=O)N[C@@H](CC(C)C)C(=O)N2C[C@H](O)C[C@H]2C(=O)N[C@@H](Cc2c[nH]c3ccccc23)C(=O)N[C@@H](CCN)C(=O)N[C@@H](Cc2cn(CC(=O)O)c3ccccc23)C(=O)N1C [Example 3066] ({CH2CO}-Y[NMeA]NP[Dap](X35)L[Hyp]W[Dab][Trp(1-CH2COOH)][NMeNle][NMeNle]LCG-NH2; thioether N-14),4.6 nM
2,CCCC[C@H]1C(=O)N(C)[C@@H](CCCC)C(=O)N[C@@H](CC(C)C)C(=O)N[C@H](C(=O)NCC(N)=O)CSCC(=O)N[C@@H](Cc2ccc(O)cc2)C(=O)N(C)[C@@H](C)C(=O)N[C@@H](CC(N)=O)C(=O)N2CCC[C@H]2C(=O)N[C@@H](CNC(=O)Nc2c[nH]c3ccccc23)C(=O)N[C@@H](CC(C)C)C(=O)N2C[C@H](O)C[C@H]2C(=O)N[C@@H](Cc2c[nH]c3ccccc23)C(=O)N[C@@H](CCNC(=O)Nc2c[nH]c3ccccc23)C(=O)N[C@@H](Cc2cn(CC(=O)O)c3ccccc23)C(=O)N1C [Example 3060] ({CH2CO}-Y[NMeA]NP[Dap]([CO-X52])L[Hyp]W[Dab]([CO-X52])[Trp(1-CH2COOH)][NMeNle][NMeNle]LCG-NH2; thioether N-14),2.7 nM
3,CCCC[C@H]1C(=O)N(C)[C@@H](CCCC)C(=O)N[C@@H](CC(C)C)C(=O)N[C@H](C(=O)NCC(N)=O)CSCC(=O)N[C@@H](Cc2ccc(O)cc2)C(=O)N(C)[C@@H](C)C(=O)N[C@@H](CC(N)=O)C(=O)N2CCC[C@H]2C(=O)N[C@@H](CNC(=S)Nc2cccc3c(C)n[nH]c23)C(=O)N[C@@H](CC(C)C)C(=O)N2C[C@H](O)C[C@H]2C(=O)N[C@@H](Cc2c[nH]c3ccccc23)C(=O)N[C@@H](CCNC(=S)Nc2cccc3c(C)n[nH]c23)C(=O)N[C@@H](Cc2cn(CC(=O)O)c3ccccc23)C(=O)N1C [Example 3052] ({CH2CO}-Y[NMeA]NP[Dap](X35)L[Hyp]W[Dab](X35)[Trp(1-CH2COOH)][NMeNle][NMeNle]LCG-NH2; thioether N-14),3.9 nM
4,CCCC[C@H]1C(=O)N(C)[C@@H](CCCC)C(=O)N[C@@H](CC(C)C)C(=O)N[C@H](C(=O)NCC(N)=O)CSCC(=O)N[C@@H](Cc2ccc(O)cc2)C(=O)N(C)[C@@H](C)C(=O)N[C@@H](CC(N)=O)C(=O)N2CCC[C@H]2C(=O)N[C@@H](CNC(=O)Nc2ccc3c(c2)OCCO3)C(=O)N[C@@H](CC(C)C)C(=O)N2C[C@H](O)C[C@H]2C(=O)N[C@@H](Cc2c[nH]c3ccccc23)C(=O)N[C@@H](CCN)C(=O)N[C@@H](Cc2cn(CC(=O)O)c3ccccc23)C(=O)N1C [Example 3042] ({CH2CO}-Y[NMeA]NP[Dap]([CO-X71])L[Hyp]W[Dab][Trp(1-CH2COOH)][NMeNle][NMeNle]LCG-NH2; thioether N-14),2.5 nM
5,CCCC[C@H]1C(=O)N(C)[C@@H](CCCC)C(=O)N[C@@H](CC(C)C)C(=O)N[C@H](C(=O)NCC(N)=O)CSCC(=O)N[C@@H](Cc2ccc(O)cc2)C(=O)N(C)[C@@H](C)C(=O)N[C@@H](CC(N)=O)C(=O)N2CCC[C@H]2C(=O)N[C@@H](CN)C(=O)N[C@@H](CC(C)C)C(=O)N2C[C@H](O)C[C@H]2C(=O)N[C@@H](Cc2c[nH]c3ccccc23)C(=O)N[C@@H](CCNC(=O)Nc2ccc3sccc3c2)C(=O)N[C@@H](Cc2cn(CC(=O)O)c3ccccc23)C(=O)N1C [Example 3038] ({CH2CO}-Y[NMeA]NP[Dap]L[Hyp]W[Dab]([CO-NH(benzothiophen-5-yl)])[Trp(1-CH2COOH)][NMeNle][NMeNle]LCG-NH2; thioether N-14),5.3 nM
6,CCCC[C@H]1C(=O)N(C)[C@@H](CCCC)C(=O)N[C@@H](CC(C)C)C(=O)N[C@H](C(=O)NCC(N)=O)CSCC(=O)N[C@@H](Cc2ccc(O)cc2)C(=O)N(C)[C@@H](C)C(=O)N[C@@H](CC(N)=O)C(=O)N2CCC[C@H]2C(=O)N[C@@H](CNC(=S)Nc2ccc3c(c2)c2ccccc2n3CC)C(=O)N[C@@H](CC(C)C)C(=O)N2C[C@H](O)C[C@H]2C(=O)N[C@@H](Cc2c[nH]c3ccccc23)C(=O)N[C@@H](CCN)C(=O)N[C@@H](Cc2cn(CC(=O)O)c3ccccc23)C(=O)N1C [Example 2014] ({CH2CO}-Y[NMeA]NP[Dap](X79)L[Hyp]W[Dab][Trp(1-CH2COOH)][NMeNle][NMeNle]LCG-NH2; thioether N-14),3.8 nM
7,CCCC[C@H]1C(=O)N(C)[C@@H](CCCC)C(=O)N[C@@H](CC(C)C)C(=O)N[C@H](C(=O)NCC(N)=O)CSCC(=O)N[C@@H](Cc2ccc(O)cc2)C(=O)N(C)[C@@H](C)C(=O)N[C@@H](CC(N)=O)C(=O)N2CCC[C@H]2C(=O)N[C@@H](CNC(=S)Nc2cccc3c(C#N)c[nH]c23)C(=O)N[C@@H](CC(C)C)C(=O)N2C[C@H](O)C[C@H]2C(=O)N[C@@H](Cc2c[nH]c3ccccc23)C(=O)N[C@@H](CCN)C(=O)N[C@@H](Cc2cn(CC(=O)O)c3ccccc23)C(=O)N1C [Example 3067] ({CH2CO}-Y[NMeA]NP[Dap](X38)L[Hyp]W[Dab][Trp(1-CH2COOH)][NMeNle][NMeNle]LCG-NH2; thioether N-14),5.2 nM
8,CCCC[C@H]1C(=O)N(C)[C@@H](CCCC)C(=O)N[C@@H](CC(C)C)C(=O)N[C@H](C(=O)NCC(N)=O)CSCC(=O)N[C@@H](Cc2ccc(O)cc2)C(=O)N(C)[C@@H](C)C(=O)N[C@@H](CC(N)=O)C(=O)N2CCC[C@H]2C(=O)N[C@@H](CNC(=S)Nc2ccc3c(c2)OCCO3)C(=O)N[C@@H](CC(C)C)C(=O)N2C[C@H](O)C[C@H]2C(=O)N[C@@H](Cc2c[nH]c3ccccc23)C(=O)N[C@@H](CCN)C(=O)N[C@@H](Cc2cn(CC(=O)O)c3ccccc23)C(=O)N1C [Example 3073] ({CH2CO}-Y[NMeA]NP[Dap](X4)L[Hyp]W[Dab][Trp(1-CH2COOH)][NMeNle][NMeNle]LCG-NH2; thioether N-14),5 nM
9,CCCC[C@H]1C(=O)N(C)[C@@H](CCCC)C(=O)N[C@@H](CC(C)C)C(=O)N[C@H](C(=O)NCC(N)=O)CSCC(=O)N[C@@H](Cc2ccc(O)cc2)C(=O)N(C)[C@@H](C)C(=O)N[C@@H](CC(N)=O)C(=O)N2CCC[C@H]2C(=O)N[C@@H](CN)C(=O)N[C@@H](CC(C)C)C(=O)N2C[C@H](O)C[C@H]2C(=O)N[C@@H](Cc2c[nH]c3ccccc23)C(=O)N[C@@H](CCNC(=O)Nc2cc(F)cc(F)c2)C(=O)N[C@@H](Cc2cn(CC(=O)O)c3ccccc23)C(=O)N1C [Example 1101] ({CH2CO}-Y[NMeA]NP[Dap]L[Hyp]W[Dab]([CO-X37])[Trp(1-CH2COOH)][NMeNle][NMeNle]LCG-NH2; thioether N-14),8.6 nM
10,CCCC[C@H]1C(=O)N(C)[C@@H](CCCC)C(=O)N[C@@H](CC(C)C)C(=O)N[C@H](C(=O)NCC(N)=O)CSCC(=O)N[C@@H](Cc2ccc(O)cc2)C(=O)N(C)[C@@H](C)C(=O)N[C@@H](CC(N)=O)C(=O)N2CCC[C@H]2C(=O)N[C@@H](CNC(=O)c2ccnc3ccc(OC)cc23)C(=O)N[C@@H](CC(C)C)C(=O)N2C[C@H](O)C[C@H]2C(=O)N[C@@H](Cc2c[nH]c3ccccc23)C(=O)N[C@@H](CCNC(=O)c2ccnc3ccc(OC)cc23)C(=O)N[C@@H](Cc2cn(CC(=O)OC)c3ccccc23)C(=O)N1C [Example 3010] ({CH2CO}-Y[NMeA]NP[Dap](X72)L[Hyp]W[Dab](X72)[Trp(1-CH2CO2Me)][NMeNle][NMeNle]LCG-NH2; thioether N-14),7.8 nM
